Experimental data: patent US10168342B2, “Lipid probes and uses thereof” (THE SCRIPPS RESEARCH INSTITUTE, priority 2015, dated 2019)
Read-outs that look alike come from different tables or passages of the source.

Key:
[1] = target: T1, AEA-DA lipid probe targets in Neuro2a cells (Mus musculus, UniProt G5E829)
T1 sequence (G5E829 1-1220): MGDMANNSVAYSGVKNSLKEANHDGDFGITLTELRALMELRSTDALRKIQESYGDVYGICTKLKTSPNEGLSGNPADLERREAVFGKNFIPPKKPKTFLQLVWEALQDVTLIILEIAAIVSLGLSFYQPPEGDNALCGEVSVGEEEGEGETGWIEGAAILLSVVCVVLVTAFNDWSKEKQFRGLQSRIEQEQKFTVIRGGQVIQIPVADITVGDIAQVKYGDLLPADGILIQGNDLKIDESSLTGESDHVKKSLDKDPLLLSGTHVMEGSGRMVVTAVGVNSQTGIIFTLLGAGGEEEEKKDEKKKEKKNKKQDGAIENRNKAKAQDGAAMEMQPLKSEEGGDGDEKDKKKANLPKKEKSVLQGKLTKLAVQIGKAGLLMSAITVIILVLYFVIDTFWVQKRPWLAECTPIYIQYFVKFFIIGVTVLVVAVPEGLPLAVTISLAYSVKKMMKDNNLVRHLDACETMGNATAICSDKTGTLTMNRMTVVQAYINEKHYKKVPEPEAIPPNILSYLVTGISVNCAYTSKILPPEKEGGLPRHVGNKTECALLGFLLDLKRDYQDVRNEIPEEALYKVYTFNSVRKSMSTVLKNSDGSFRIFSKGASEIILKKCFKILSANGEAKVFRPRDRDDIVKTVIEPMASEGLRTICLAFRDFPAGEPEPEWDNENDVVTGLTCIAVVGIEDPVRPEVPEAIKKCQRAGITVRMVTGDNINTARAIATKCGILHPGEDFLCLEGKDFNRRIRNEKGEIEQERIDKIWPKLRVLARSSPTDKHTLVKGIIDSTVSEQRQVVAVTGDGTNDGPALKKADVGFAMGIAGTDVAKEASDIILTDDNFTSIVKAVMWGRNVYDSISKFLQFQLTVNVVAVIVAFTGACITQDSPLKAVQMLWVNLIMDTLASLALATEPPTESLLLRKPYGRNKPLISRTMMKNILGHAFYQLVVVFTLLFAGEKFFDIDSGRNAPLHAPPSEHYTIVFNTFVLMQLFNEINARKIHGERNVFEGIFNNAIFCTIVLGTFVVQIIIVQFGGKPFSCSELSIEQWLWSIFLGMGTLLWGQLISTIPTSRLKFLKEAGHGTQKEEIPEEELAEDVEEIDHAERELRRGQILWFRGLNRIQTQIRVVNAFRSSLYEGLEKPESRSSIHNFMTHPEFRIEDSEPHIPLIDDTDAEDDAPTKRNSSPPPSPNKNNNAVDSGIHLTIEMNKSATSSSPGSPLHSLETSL

[2] = target: T2, AEA-DA lipid probe targets in Neuro2a cells (Mus musculus, UniProt Q9ES97)
T2 sequence (Q9ES97 1-964): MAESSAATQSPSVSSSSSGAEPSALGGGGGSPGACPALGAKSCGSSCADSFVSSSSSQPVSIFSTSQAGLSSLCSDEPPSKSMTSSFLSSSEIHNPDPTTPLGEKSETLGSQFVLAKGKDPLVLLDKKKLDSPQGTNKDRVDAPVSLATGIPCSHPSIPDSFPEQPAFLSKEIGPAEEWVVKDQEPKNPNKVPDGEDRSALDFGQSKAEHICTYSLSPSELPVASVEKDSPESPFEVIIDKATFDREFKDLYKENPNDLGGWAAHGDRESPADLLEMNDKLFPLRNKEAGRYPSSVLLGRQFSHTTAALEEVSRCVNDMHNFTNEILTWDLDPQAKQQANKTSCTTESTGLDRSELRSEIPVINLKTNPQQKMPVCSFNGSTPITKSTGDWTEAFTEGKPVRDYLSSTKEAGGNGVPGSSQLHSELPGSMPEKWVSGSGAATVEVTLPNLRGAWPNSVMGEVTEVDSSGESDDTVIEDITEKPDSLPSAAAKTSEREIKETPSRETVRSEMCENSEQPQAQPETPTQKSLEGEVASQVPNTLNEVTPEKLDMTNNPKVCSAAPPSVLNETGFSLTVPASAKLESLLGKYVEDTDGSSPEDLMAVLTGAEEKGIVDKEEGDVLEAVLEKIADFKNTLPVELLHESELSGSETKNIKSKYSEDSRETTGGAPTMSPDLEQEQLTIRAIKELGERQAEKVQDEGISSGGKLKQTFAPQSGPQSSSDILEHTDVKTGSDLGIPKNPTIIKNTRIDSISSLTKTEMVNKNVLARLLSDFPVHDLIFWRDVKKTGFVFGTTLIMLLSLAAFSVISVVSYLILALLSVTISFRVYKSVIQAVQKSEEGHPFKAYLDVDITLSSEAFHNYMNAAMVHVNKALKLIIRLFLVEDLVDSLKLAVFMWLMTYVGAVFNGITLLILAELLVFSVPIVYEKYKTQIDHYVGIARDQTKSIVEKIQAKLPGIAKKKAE

[3] = target: T3, AEA-DA lipid probe targets in Neuro2a cells (Mus musculus, UniProt Q9QY93)
T3 sequence (Q9QY93 1-170): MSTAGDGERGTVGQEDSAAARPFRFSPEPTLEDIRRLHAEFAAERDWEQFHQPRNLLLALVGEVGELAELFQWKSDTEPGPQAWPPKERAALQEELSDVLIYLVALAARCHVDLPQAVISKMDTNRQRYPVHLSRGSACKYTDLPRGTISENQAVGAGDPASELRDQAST

[4] = target: T4, AEA-DA lipid probe targets in Neuro2a cells (Mus musculus, UniProt Q61263)
T4 sequence (Q61263 1-540): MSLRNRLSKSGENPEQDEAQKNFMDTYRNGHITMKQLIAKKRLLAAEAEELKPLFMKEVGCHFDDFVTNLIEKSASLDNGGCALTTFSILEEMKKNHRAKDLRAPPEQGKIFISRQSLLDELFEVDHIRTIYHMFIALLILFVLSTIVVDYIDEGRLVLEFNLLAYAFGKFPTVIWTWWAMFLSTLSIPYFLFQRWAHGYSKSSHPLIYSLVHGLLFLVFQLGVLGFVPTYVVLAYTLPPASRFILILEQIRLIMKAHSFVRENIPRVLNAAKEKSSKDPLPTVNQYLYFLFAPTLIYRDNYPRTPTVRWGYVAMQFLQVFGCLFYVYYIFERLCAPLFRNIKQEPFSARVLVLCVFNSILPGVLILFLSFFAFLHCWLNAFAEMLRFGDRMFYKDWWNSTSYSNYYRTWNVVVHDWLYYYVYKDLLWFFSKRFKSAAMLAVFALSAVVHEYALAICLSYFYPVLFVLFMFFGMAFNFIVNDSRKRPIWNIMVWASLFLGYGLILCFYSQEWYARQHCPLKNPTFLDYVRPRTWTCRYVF

SMILES | SILAC ratio Atp2b1 ([1]; competitor 25 μM) | SILAC ratio, Soat1 ([4]; competitor 25 μM) | SILAC ratio, Rtn3 ([2]; competitor 25 μM) | SILAC ratio Dctpp1 ([3]; competitor 25 μM) | further results
CCCCC/C=C\C/C=C\C/C=C\C/C=C\CCCC(=O)NCCO [AEA, anandamide, reference compound] |  |  |  |  | SILAC ratio Atp2b1 ([1]; competitor 200 μM): 1.6; SILAC ratio, Rtn3 ([2]; competitor 200 μM): 2.7; SILAC ratio Dctpp1 ([3]; competitor 200 μM): 1.5
O=C(/C=C/c1cccnc1)NCCCCC1CCN(C(=O)c2ccccc2)CC1 [FK-866, reference compound] | 1.2 | 2.3 | 1.1 | 1.4 | 
CN1CCN(C(=O)c2c(-c3ccccc3)c3cc([N+](=O)[O-])ccc3n2C)CC1 [KML110, (1-Methyl-5-nitro-3-phenyl-1H-indol-2-yl)(4-methylpiperazin-1-yl)methanone] | 1.8 |  | 1.3 | 1.6 | 
CN1CCN(C(=O)c2[nH]c3ccc([N+](=O)[O-])cc3c2-c2ccccc2)CC1 [MJN228, (4-Methylpiperazin-1-yl)(5-nitro-3-phenyl-1H-indol-2-yl)methanone] | 1.4 | 2.6 | 1.4 | 1.2 | SILAC ratio Atp2b1 ([1]; competitor 10 μM): 1.1; SILAC ratio Atp2b1 ([1]; competitor 50 μM): 1.4; SILAC ratio Atp2b1 ([1]; competitor 100 μM): 1.7; SILAC ratio, Soat1 ([4]; competitor 10 μM): 1.2; SILAC ratio, Rtn3 ([2]; competitor 10 μM): 1.2; SILAC ratio, Rtn3 ([2]; competitor 50 μM): 1.4; SILAC ratio, Rtn3 ([2]; competitor 100 μM): 1.7; SILAC ratio Dctpp1 ([3]; competitor 50 μM): 1.0; SILAC ratio Dctpp1 ([3]; competitor 100 μM): 1.0
C=CCN(C)CCCCCCOc1ccc(C(=O)c2ccc(Br)cc2)c(F)c1 [Ro 48-8071, reference compound] | 1.1 | 1.8 | 1.2 | 0.8 | 
